In publication PMC10600239, “Selective MCL-1 inhibitor ABBV-467 is efficacious in tumor models but is associated with cardiac troponin increases in patients” (Communications Medicine, 2023):

Key:
rat Mcl1 = target: T1, rat Mcl1 (Rattus norvegicus, UniProt Q9Z1P3); test: TR-FRET binding assay, MCL-1 orthologs
T1 construct: made in house; host or cells: E. coli BL21(DE3)-T1R
Protocol: (§1) Binding affinities for MCL-1, BCL-2, BCL-XL, BCL-W, and BCL2-A1 were determined using a time-resolved fluorescence resonance energy transfer (FRET) assay. Test compounds were serially diluted in DMSO starting at […] (20× starting concentration; 100% DMSO followed by a 1:10 dilution of the compound DMSO plate into assay buffer); 10 µL of the compound in 10% DMSO was then transferred into a 384-well plate (low-volume Corning #3673 assay plate). Glutathione S-transferase (GST)-tagged recombinant BCL-2, BCL-XL, MCL-1, BCL-W, or BCL2-A1 protein (1 nM each) were mixed with 100 nM Oregon Green™-labeled f-BAK peptide probe and 1 nM Tb-labeled anti-GST antibody were mixed. Then 10 µL of a 2× protein/probe/antibody mix was added to each well of increasing concentrations of test compound in assay buffer (20 mM potassium phosphate, pH 7.6, 50 mM NaCl, 1 mM ethylenediaminetetraacetic acid disodium salt dihydrate, 0.05% pluronic acid F-68, 1 mM DL-dithiothreitol) at room temperature (final concentrations listed in Supplementary Table S2). The samples were then mixed on a shaker for 1 min and incubated for an additional 1 h at room temperature. For each assay plate, a probe/antibody and protein/antibody/probe mixture were included as a negative and a positive control, respectively. Fluorescence was measured on the EnVision™ (Perkin Elmer) using a 340/35-nm excitation filter and 520/525- (F-Bak) and 495/510-nm (Tb-labeled anti-glutathione S-transferase [GST] antibody) emission filters. Dissociation constants were determined using Wang’s equation[35]. The time-resolved FRET assay can be performed in the presence of varying concentrations of human serum to determine apparent half-maximal inhibitory concentration after serum protein binding.
(§2) Supplementary Table S10: MCL-1 ortholog information and ABBV-467 affinity across species […]
(§3) Mouse Mus musculus Rattus Canis lupus Macaca sp.
(§4) Protein name Mcl1 Mcl1 M CL1 M CL1 […]
(§5) Amino acid sequence homology determined with NCBI BLAST (http://blast.ncbi.nlm.nih.gov). […]

dog MCL1 = target: T2, dog MCL1 (Canis lupus familiaris, UniProt Q8HYS5); test: TR-FRET binding assay, MCL-1 orthologs; conditions: read-out: Ki, canine MCL-1
T2 construct: rhesus monkey (iso4, NM_001 1089 3 7, AA 171-327), dog (NM_001 0030 16, AA17 1- 327); made in house; host or cells: E. coli BL21(DE3)-T1R
T2 sequence (Q8HYS5 171-327): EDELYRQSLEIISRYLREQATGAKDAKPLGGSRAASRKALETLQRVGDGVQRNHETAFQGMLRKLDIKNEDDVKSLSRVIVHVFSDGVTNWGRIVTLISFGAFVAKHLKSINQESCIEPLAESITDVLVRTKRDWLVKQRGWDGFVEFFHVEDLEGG
Protocol: as §1, §2, §3, §4, §5

mouse Mcl1 = target: T3, mouse Mcl1 (Mus musculus, UniProt P97287); test: TR-FRET binding assay, MCL-1 orthologs
T3 construct: made in house; host or cells: E. coli BL21(DE3)-T1R
T3 sequence (P97287 152-308): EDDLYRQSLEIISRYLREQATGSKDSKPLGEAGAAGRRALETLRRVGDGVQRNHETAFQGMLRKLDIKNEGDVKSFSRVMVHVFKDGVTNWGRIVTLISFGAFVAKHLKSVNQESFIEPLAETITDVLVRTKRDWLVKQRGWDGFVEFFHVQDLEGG
Protocol: as §1, §2, §3, §4, §5

NCI-H929 xenografts = test: NCI-H929 xenograft efficacy (tumor volume, survival); type: in vivo; conditions: single dose […]
Protocol: All animal studies were conducted in accordance with the guidelines approved by the Institutional Animal Care and Use Committees of AbbVie. The research protocol was approved by In Vivo Pharmacology at AbbVie prior to study initiation but was not publicly registered or disclosed. Female C.B-17 SCID-beige mice (AMO-1, OPM-2, NCI-H929, and OCI-AML2 xenografts) and female NSG mice (MV4-11-Red.Fluc systemic) were purchased from Charles River Laboratories (Wilmington, MA). Animals were housed in a light cycle-controlled room with HEPA filtration at 22 °C. Animals had nesting and climbing cage topper as the primary environmental enrichment. […] All xenograft trials were conducted using 5 to 10 mice per group, and all mice were ear tagged and monitored individually throughout the studies. […] Tumor burden in the systemic MV4-11-Red.Fluc experiment was measured using an IVIS® spectrum from PerkinElmer by taking the total photon flux of the entire dorsal side of an individual mouse. […]
For in vivo studies, maximal tumor growth inhibition (TGI) was calculated as the greatest treatment response using the following equation: Maximal TGI = (1 − mean tumor volume of the treated group/mean tumor volume of the vehicle control group) × 100. […] Data from experiments in vivo were analyzed using the student’s t-test for TGI values and the Mann–Whitney U test for TGD using Excel and GraphPad Prism. […]

T1 sequence (Q9Z1P3 151-307): as the sequence (P97287 152-308) above, with E1D, D3E, S26A, G71D, V81T, V111I, F116C, T123S counted along it

Cc1c(Cl)c2c(Cl)c(C)c1-c1c(-c3ccc(F)cc3)sc3ncnc(c13)O[C@@H](C(=O)O)Cc1cc(ccc1OCc1ccnc(-c3ccc(OC[C@H]4COCCO4)cc3)n1)OC[C@@H](CN1CCN(C)CC1)O2 [ABBV-467]
Ki (rat Mcl1): < 0.1 nM
Ki (dog MCL1): < 0.1 nM
affinity for the murine mcl1 (mouse Mcl1): substantially reduced affinity
mice with tumors remaining below 1000 mm^3 until 250 days post-treatment (NCI-H929 xenografts): 40%
